Experimental data from patent US20130017197A1, “STABILIZED ANTIBODY PREPARATIONS AND USES THEREOF” (UNIVERSITE DE GENEVE, priority 2010, published 2013).

How the values were obtained:
Format in all cases: physicochemical
bevacizumab = test: Stability of dialysed, pre-stressed bevacizumab alone and with AMP: percentage of monomers by AFFF-MALS; settings: for percentage of monomers: pH 7.0
Protocol: A 50 mM phosphate buffer pH 7.0 was used. The buffer choice was based on a pH range and buffer capacity that is tolerated physiologically and that is acceptable for the stability of antibodies. […] Samples were analyzed directly after preparation (t0) and after 7, 14 and 28 days. The aggregation state of the antibodies was measured by multi-angle light scattering (MALS) after separation by asymmetrical flow field-flow fractionation (AFFF). […] Data were collected and analyzed with Astra software (Wyatt Technology Europe GmbH, Dernbach, Germany). The aggregation state was expressed as the percentage of monomers versus time.

Avastin® (bevacizumab) [1] = test: Effect of AMP on the unmodified commercial bevacizumab formulation (Avastin®): monomers by AFFF-MALS; settings: 40° C.; for stabilization of the antibody (increase in the amount of monomers) versus Avastin® alone: p<0.05
Protocol: (§1) All samples were stored at a temperature of 40° C. during 28 days. Samples were analyzed directly after preparation (t0) and after 7, 14 and 28 days. The aggregation state of the antibodies was measured by multi-angle light scattering (MALS) after separation by asymmetrical flow field-flow fractionation (AFFF). […] Data were collected and analyzed with Astra software (Wyatt Technology Europe GmbH, Dernbach, Germany). The aggregation state was expressed as the percentage of monomers versus time.
All samples are stored at a temperature of 40° C. for 28 days and stability is measured as described in Example 1 and compared to a sample of Avastin® alone stored under the same conditions.

Avastin® (bevacizumab) [2] = test: Stability of pre-stressed Avastin® dialysed into PBS pH 7.0, with ATP or GMP: monomers by AFFF-MALS; settings: for stabilization of Avastin® across molar ratios: ratios 1:1, 1:10, 1:100, 40° C.
Protocol: as §1, with “Samples were analyzed directly after preparation (t0) and after 7, 14 and 28 days.” left out
After pre-stressing, Avastin® samples are combined with either ATP or GMP at three Avastin®: compound of formula (I) molar ratios (1:1, 1:10 and 1:100). All samples are stored at a temperature of 40° C. for 28 days and stability is measured as described in Example 1 and compared to a sample of Avastin® alone stored under the same conditions. For GMP, a dilution of GMP was made in PBS pH 7.0 and pH was re-adjusted to pH 7.0 before the combination with Avastin® to prevent the risk of higher order aggregates caused by the addition of NaOH directly to the antibody formulation.

[3] = molar ratio 1:1, 1 day at 40° C. (t1)
[4] = molar ratio 1:10, 1 day at 40° C. (t1)
[5] = molar ratio 1:100, 1 day at 40° C. (t1)

Structure (SMILES)	increase in the proportion of the antibody present in the monomer form (bevacizumab; AMP added to a liquid formulation containing already formed antibody aggregates, general statement)	percentage of monomers (bevacizumab; bevacizumab 25 mg/ml with AMP (read as molar ratio 1:153), 14 days at 40° C., n=3)	percentage of monomers (bevacizumab; bevacizumab:AMP molar ratio 1:1.53, 14 days at 40° C.)	percentage of monomers (bevacizumab; bevacizumab:AMP molar ratio 1:1.53, 28 days at 40° C., n=3)	percentage of monomers (bevacizumab; bevacizumab:AMP molar ratio 1:15.3, 14 days at 40° C.)	percentage of monomers (bevacizumab; bevacizumab:AMP molar ratio 1:15.3, 28 days at 40° C., n=3)	percentage of monomers (bevacizumab; bevacizumab:AMP molar ratio 1:153, 28 days at 40° C., n=3)	stabilization compared to the other molar ratios (Avastin® (bevacizumab) [1]; Avastin®:AMP 1:10 versus 1:1 and 1:100)	stabilization of the antibody (increase in the amount of monomers) versus Avastin® alone (Avastin® (bevacizumab) [1]; Avastin®:AMP molar ratio 1:10, t1, t14 and t28)	stabilization of the antibody (increase in the amount of monomers) versus Avastin® alone (Avastin® (bevacizumab) [1]; Avastin®:AMP molar ratio 1:100, only t14 and t28)	effect on antibody stability versus Avastin® alone (Avastin® (bevacizumab) [2]; [3])	effect on antibody stability versus Avastin® alone (Avastin® (bevacizumab) [2]; molar ratio 1:1, 28 days at 40° C. (t28))	effect on antibody stability versus Avastin® alone (Avastin® (bevacizumab) [2]; [4])	effect on antibody stability versus Avastin® alone (Avastin® (bevacizumab) [2]; molar ratio 1:10, 28 days at 40° C. (t28))	effect on antibody stability versus Avastin® alone (Avastin® (bevacizumab) [2]; [5])	effect on antibody stability versus Avastin® alone (Avastin® (bevacizumab) [2]; molar ratio 1:100, 28 days at 40° C. (t28))	higher order aggregates (Avastin® (bevacizumab) [2]; molar ratio 1:100, 28 days at 40° C., probably due to pH adjustment)	stabilization of Avastin® across molar ratios (Avastin® (bevacizumab) [2]; up to 14 days)	stabilizing properties in comparison of excipients (Avastin® (bevacizumab) [2]; after 28 days of storage at 40° C., ratio not specified)	stabilization of Avastin® across molar ratios (Avastin® (bevacizumab) [2]; all timepoints (1:100 most effective, then 1:10, then 1:1))
Nc1ncnc2c1ncn2[C@@H]1O[C@H](COP(=O)(O)O)[C@@H](O)[C@H]1O [AMP, adenosine 5′-monophosphate]	10% to 30	higher than 94%	higher than 80%	higher than 76%	higher than 80%	higher than 76%	around 90%	better stabilization	significant stabilization	significant stabilization										
Nc1ncnc2c1ncn2[C@@H]1O[C@H](COP(=O)(O)OP(=O)(O)OP(=O)(O)O)[C@@H](O)[C@H]1O [ATP, adenosine 5′-triphosphate]											stabilizing effect	no significant difference	stabilizing effect	no significant difference	stabilizing effect	significant stabilization	small percentage of higher order aggregates	concentration dependent stabilization		
Nc1nc2c(ncn2[C@@H]2O[C@H](COP(=O)(O)O)[C@@H](O)[C@H]2O)c(=O)[nH]1 [GMP, guanosine 5′-monophosphate]											destabilizing		destabilizing		ability to stabilize the antibody				most distinct stabilizing properties	concentration dependent stabilization
